{
  "source": "patent US12491187B2",
  "about": "“Use of MCT1 inhibitors to enhance insulin sensitivity” (H. LEE MOFFIT CANCER CENTER AND RESEARCH INSTITUTE, INC., priority 2022, dated 2025)",
  "test_system": "differentiated 3T3-L1 (WT) cells",
  "experiment": "Glucose uptake (Glucose Uptake-Glo) in WT adipocytes",
  "format": "cell-based, murine",
  "conditions": "RO-3306 (10 μM) co-treated with AZD3965 (1 μM)",
  "method": "Glucose Uptake: 3T3-L1 cells were seeded and differentiated in clear bottom 96-well plates (Corning®). After differentiation, cells were treated with or without […] AZD3965 for 24 hr, 48 hr or 72 hr as illustrated in FIG. 7 (schematic outline of experimental procedure). The cells were incubated in serum free media the night before performing the assay. The following day/morning, media was changed to serum and glucose free media for 2 hr prior to the experiment. Cells were then stimulated with 175 nM Insulin or vehicle (PBS) for 30 minutes. Glucose Uptake was measured using the Glucose Uptake-Glo™ Assay (Promega®) according to the manufacturer's protocol. The data generated were normalized by dividing the relative luminescence units (RLU) measured in insulin stimulated wells by vehicle treated controls. The aforementioned experiment was repeated in the presence of the CDK1 inhibitor, RO-3306 (10 μM), where indicated (FIG. 5C).",
  "data": [
    {"smiles": "O=C1NC(=NCc2cccs2)S/C1=C\\c1ccc2ncccc2c1", "note": "[RO-3306]", "values": [
      {"measurement": "insulin-stimulated glucose uptake under co-treatment", "value": "the effects of AZD3965 were attenuated"}
    ]}
  ]
}
